Results from patent US7547804B2, “Compounds, compositions, and methods employing same” (Myriad Genetics, Inc., priority 2002, dated 2009).

Tested on: LNCaP cell lines
Experiment: WST-1 Cell Proliferation and Viability Assay
Format: cell-based
Conditions: Homo sapiens; LNCaP cells, compound incubation 18-72 hours
In short: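 LNCaP cells (5000/well, phenol-red-free RPMI-1640 with 10% FCS) were plated overnight, then exposed to compounds in 0.1% DMSO final for 18-72 hours at 37 °C. Viability was read by WST-1 conversion to formazan after 3 h further incubation, measured at A490-A650.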

EC50 [µM] | SMILES
24 | CCOc1cc(CNc2cccc(NC(=O)c3cc(Cl)ccc3O)c2)ccc1OC [Compound 20]
10 | O=C(Nc1cccc(CCOc2ccccc2)c1)c1cc(Cl)ccc1O [Compound 18]
5 | Cc1ccc(NC(=O)c2cc(Cl)ccc2O)c(OCCc2ccccc2C(F)(F)F)c1 [Compound 171]
10 | COc1ccccc1CCOc1cccc(NC(=O)c2cc(-c3ccccc3Cl)ccc2O)c1 [Compound 350]
6 | CC(Cc1ccccc1)Oc1cccc(NC(=O)c2cc(Cl)ccc2O)c1 (centres unmarked) [Compound 95]
